pIC50: −log10 of the molar value. Several values for one entry are separate records, joined by “and”; a condition that tells them apart may be missing. Identical values can stand only once. Entries after “also recorded” stand apart in the source; their conditions may differ. Like-named read-outs stand apart in the source and are kept apart here.
Experiments:
mouse Nav1.4 = mouse Nav1.4 (Mus musculus, UniProt Q9ER60); test: cell-based; settings: for pIC50: PatchXpress, tonic block, mouse Nav1.4, read-out: PX mNav1.4 Tonic IC50; for mNav1.4/mNav1.7: ratio of PX tonic IC50, mouse Nav1.4 over mouse Nav1.7
rNav1.7 = rNav1.7 (Rattus norvegicus, UniProt O08562); test: cell-based; settings: for pIC50: PatchXpress, tonic block, rat Nav1.7, read-out: PX rNav1.7 Tonic IC50; for rNav1.7/hNav1.7: ratio of PX tonic IC50, rat Nav1.7 over human Nav1.7
mNav1.7 = mNav1.7 (Mus musculus, UniProt Q62205); test: cell-based; settings: for pIC50: PatchXpress, tonic block, mouse Nav1.7, read-out: PX mNav1.7 Tonic IC50; for mNav1.7/hNav1.7: ratio of PX tonic IC50, mouse Nav1.7 over human Nav1.7
Sequence of mNav1.7 (Q62205 whole entry): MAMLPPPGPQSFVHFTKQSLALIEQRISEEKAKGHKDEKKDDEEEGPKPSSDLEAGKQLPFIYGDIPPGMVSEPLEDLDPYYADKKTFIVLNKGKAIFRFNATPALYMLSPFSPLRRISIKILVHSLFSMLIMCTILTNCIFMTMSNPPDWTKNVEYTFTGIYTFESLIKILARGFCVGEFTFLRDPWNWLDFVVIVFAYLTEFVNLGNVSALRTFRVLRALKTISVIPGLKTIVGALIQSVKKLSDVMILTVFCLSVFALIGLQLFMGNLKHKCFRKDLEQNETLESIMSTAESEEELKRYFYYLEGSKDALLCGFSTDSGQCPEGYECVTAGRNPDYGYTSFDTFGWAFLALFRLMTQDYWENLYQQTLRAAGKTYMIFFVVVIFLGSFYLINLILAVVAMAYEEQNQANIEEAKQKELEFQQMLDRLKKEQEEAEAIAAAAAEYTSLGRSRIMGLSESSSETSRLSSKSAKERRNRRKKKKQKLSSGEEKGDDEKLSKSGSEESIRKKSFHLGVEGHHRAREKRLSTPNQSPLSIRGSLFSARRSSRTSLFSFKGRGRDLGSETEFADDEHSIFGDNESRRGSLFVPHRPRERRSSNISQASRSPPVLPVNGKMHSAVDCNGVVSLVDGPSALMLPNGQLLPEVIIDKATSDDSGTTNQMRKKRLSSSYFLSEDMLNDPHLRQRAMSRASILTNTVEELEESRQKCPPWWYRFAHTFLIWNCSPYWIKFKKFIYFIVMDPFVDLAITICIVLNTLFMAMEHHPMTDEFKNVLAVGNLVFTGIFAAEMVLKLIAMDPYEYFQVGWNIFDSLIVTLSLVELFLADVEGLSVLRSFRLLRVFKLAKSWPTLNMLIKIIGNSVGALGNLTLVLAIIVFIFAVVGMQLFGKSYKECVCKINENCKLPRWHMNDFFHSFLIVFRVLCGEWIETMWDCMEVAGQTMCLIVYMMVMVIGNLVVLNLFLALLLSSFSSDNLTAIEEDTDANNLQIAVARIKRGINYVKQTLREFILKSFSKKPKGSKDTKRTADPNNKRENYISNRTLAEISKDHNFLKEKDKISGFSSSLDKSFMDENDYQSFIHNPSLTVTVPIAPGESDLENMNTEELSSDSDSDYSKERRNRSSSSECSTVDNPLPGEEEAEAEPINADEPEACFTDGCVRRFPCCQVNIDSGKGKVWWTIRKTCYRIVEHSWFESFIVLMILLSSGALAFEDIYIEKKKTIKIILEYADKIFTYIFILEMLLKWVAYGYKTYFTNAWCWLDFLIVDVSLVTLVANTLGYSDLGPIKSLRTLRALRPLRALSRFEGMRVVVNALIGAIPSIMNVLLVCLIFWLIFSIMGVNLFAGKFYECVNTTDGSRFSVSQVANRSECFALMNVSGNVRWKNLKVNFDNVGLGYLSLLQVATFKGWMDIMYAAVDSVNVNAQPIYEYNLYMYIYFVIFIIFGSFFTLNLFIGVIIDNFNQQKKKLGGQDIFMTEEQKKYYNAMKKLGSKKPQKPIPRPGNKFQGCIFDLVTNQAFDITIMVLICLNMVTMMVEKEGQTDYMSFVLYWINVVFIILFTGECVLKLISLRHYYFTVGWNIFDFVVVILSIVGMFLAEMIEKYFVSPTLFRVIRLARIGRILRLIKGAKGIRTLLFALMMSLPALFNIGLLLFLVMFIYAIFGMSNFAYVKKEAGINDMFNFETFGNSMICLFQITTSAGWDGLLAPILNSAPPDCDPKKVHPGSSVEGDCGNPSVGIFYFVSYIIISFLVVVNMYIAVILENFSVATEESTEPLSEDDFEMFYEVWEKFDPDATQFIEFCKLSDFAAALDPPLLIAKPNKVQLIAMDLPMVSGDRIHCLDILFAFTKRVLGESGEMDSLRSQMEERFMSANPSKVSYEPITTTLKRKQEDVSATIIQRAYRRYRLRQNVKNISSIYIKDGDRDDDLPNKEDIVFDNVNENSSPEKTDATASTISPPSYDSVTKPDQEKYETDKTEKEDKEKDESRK

hNav1.7 [1] = target: T1, hNav1.7 (Homo sapiens, UniProt Q15858); test: cell-based; assay type: cell-based
T1 sequence (Q15858 whole entry): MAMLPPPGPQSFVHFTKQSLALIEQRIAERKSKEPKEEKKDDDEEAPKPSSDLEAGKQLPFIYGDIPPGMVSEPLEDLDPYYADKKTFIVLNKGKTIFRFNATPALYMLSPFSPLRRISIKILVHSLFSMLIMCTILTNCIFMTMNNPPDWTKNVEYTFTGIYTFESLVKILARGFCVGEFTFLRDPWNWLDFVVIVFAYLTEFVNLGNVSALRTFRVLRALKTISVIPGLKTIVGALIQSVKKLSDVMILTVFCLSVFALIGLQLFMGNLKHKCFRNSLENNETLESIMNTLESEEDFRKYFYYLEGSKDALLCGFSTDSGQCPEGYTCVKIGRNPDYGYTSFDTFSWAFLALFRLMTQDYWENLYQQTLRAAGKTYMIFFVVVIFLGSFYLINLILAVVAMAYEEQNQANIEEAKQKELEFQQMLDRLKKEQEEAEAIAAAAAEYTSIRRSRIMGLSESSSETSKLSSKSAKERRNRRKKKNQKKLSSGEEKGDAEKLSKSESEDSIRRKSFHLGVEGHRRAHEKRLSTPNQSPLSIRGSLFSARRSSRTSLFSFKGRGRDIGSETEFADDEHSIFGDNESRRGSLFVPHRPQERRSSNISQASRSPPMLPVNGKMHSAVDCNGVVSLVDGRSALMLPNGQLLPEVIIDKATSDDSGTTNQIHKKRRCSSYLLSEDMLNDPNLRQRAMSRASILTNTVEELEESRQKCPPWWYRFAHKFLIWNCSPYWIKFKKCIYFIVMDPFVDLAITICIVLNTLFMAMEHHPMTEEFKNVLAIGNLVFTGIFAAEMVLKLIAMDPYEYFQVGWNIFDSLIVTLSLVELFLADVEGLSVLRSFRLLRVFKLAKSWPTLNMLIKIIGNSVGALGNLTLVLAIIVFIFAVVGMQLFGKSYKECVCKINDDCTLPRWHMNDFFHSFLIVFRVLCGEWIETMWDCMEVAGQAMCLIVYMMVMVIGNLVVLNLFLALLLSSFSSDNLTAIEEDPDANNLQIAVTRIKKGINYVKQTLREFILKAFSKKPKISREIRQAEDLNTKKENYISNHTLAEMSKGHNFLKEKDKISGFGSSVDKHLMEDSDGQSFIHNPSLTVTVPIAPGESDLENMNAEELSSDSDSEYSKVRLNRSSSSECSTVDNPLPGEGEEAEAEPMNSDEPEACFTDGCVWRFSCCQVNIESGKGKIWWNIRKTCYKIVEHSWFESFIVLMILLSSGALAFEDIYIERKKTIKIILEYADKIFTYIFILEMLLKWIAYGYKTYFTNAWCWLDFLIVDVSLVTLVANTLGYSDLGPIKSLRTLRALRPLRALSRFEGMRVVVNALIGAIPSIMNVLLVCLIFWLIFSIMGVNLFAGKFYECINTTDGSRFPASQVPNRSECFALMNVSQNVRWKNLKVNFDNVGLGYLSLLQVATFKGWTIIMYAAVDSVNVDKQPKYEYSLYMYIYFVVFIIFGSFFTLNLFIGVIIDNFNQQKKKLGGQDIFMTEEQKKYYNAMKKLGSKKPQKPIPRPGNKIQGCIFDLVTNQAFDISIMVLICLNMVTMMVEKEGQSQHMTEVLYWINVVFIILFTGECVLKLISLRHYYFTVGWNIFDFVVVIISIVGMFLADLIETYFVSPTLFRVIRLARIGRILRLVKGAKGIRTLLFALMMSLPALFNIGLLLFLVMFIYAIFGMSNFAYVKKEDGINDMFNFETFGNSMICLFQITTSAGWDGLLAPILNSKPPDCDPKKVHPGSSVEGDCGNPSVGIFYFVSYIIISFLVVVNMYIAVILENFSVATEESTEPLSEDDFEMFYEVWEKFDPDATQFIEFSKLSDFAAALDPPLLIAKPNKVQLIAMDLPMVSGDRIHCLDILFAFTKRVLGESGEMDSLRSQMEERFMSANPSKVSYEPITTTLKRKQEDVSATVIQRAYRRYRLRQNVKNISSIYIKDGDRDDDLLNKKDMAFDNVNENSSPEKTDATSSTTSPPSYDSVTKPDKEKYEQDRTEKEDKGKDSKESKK

hNav1.7 [2] = target: T1, hNav1.7; test: cell-based; assay type: cell-based; settings: for block of hNav1.7 current, in words: 100 pM; for 1.x/1.7: hNav1.7 / hNav1.7
[3] = tested on: TTX-sensitive Nav channels in mouse DRG neuron
hNav1.6 = hNav1.6 (Homo sapiens, UniProt Q9UQD0); test: cell-based; assay type: cell-based; settings: Table 15

## C#CC[C@H](N)C(=O)N[C@@H](Cc1ccc(O)cc1)C(=O)N[C@H]1CSSC[C@@H]2NC(=O)[C@@H]3CSSC[C@@H](C(=O)N[C@@H](CCCNC(=N)N)C(=O)N[C@@H](CCCCN)C(=O)N[C@H](C(=O)N[C@H](C(N)=O)[C@@H](C)CC)[C@@H](C)CC)NC(=O)[C@H](Cc4c[nH]c5ccccc45)NC(=O)[C@H](CC(C)C)NC(=O)[C@H](CCCCN)NC(=O)[C@H](CSSC[C@H](NC(=O)[C@H]([C@@H](C)O)NC(=O)[C@H](Cc4c[nH]c5ccccc45)NC(=O)[C@H](CCCC)NC(=O)[C@H](Cc4c[nH]c5ccccc45)NC(=O)[C@H](CCCCN)NC(=O)[C@H](CCC(N)=O)NC1=O)C(=O)N[C@@H](CC(=O)O)C(=O)N[C@@H](CO)C(=O)N[C@@H](CCC(=O)O)C(=O)N[C@@H](CCCNC(=N)N)C(=O)N[C@@H](C)C(=O)N3)NC(=O)[C@H](CCCNC(=N)N)NC(=O)[C@H](CC(C)C)NC(=O)CNC(=O)[C@H](CCCCN)NC2=O [Pra-[Nle6; Glu12; Lys17]JzTx-V(1-29)]
Mouse Nav1.4
  pIC50: 8.56
  mNav1.4/mNav1.7: 2.2
rNav1.7
  pIC50: 9.19
  rNav1.7/hNav1.7: 0.35
mNav1.7
  pIC50: 8.90
  mNav1.7/hNav1.7: 0.68

## C#CC[C@H](N)C(=O)N[C@@H](Cc1ccc(O)cc1)C(=O)N[C@H]1CSSC[C@@H]2NC(=O)[C@@H]3CSSC[C@@H](C(=O)N[C@@H](CCCNC(=N)N)C(=O)N[C@@H](CCCCN)C(=O)N[C@@H](CCC(=O)O)C(=O)N[C@H](C(N)=O)[C@@H](C)CC)NC(=O)[C@H](Cc4c[nH]c5ccccc45)NC(=O)[C@H](CC(C)C)NC(=O)[C@H](CCCCN)NC(=O)[C@H](CSSC[C@H](NC(=O)[C@H]([C@@H](C)O)NC(=O)[C@H](Cc4c[nH]c5ccccc45)NC(=O)[C@H](CCCC)NC(=O)[C@H](Cc4c[nH]c5ccccc45)NC(=O)[C@H](CCCCN)NC(=O)[C@H](CCC(N)=O)NC1=O)C(=O)N[C@@H](CC(=O)O)C(=O)N[C@@H](CCC(=O)O)C(=O)N[C@@H](CCCCN)C(=O)N[C@@H](CCCNC(=N)N)C(=O)N[C@@H](C)C(=O)N3)NC(=O)[C@H](CCCNC(=N)N)NC(=O)[C@H](CC(C)C)NC(=O)CNC(=O)[C@H](CCC(=O)O)NC2=O [Pra-[Nle6; Glu11, 28]JzTx-V(1-29)]
Mouse Nav1.4
  mNav1.4/mNav1.7: 34
rNav1.7
  rNav1.7/hNav1.7: 0.95
mNav1.7
  mNav1.7/hNav1.7: 10.57

## [Phe6,Atz(2 kDa EtO-PEG*-[Phe6,Atz13*]GpTx-1(1-34)1)13]GpTx-1(1-34) [Homodimeric Conjugate No. 3]
hNav1.7 [1]
  Wash out: No
hNav1.7 [1]; read-out: Nav1.7 PX IC50
  pIC50: 7.89
hNav1.7 [2]; read-out: Nav1.7 whole cell patch clamp [WCPC] IC50
  pIC50: 9.24

## C#CC[C@H](N)C(=O)N[C@@H](Cc1ccc(O)cc1)C(=O)N[C@H]1CSSC[C@@H]2NC(=O)[C@@H]3CSSC[C@@H](C(=O)N[C@@H](CCCNC(=N)N)C(=O)N[C@@H](CCCCN)C(=O)N[C@H](C(=O)N[C@H](C(N)=O)[C@@H](C)CC)[C@@H](C)CC)NC(=O)[C@H](Cc4c[nH]c5ccccc45)NC(=O)[C@H](CC(C)C)NC(=O)[C@H](CCCCN)NC(=O)[C@H](CSSC[C@H](NC(=O)[C@H]([C@@H](C)O)NC(=O)[C@H](Cc4c[nH]c5ccccc45)NC(=O)[C@H](CCCC)NC(=O)[C@H](Cc4c[nH]c5ccccc45)NC(=O)[C@H](CCCCN)NC(=O)[C@H](CCC(N)=O)NC1=O)C(=O)N[C@@H](CC(=O)O)C(=O)N[C@@H](CO)C(=O)N[C@@H](CCCCN)C(=O)N[C@@H](CCCNC(=N)N)C(=O)N[C@@H](C)C(=O)N3)NC(=O)[C@H](CCCNC(=N)N)NC(=O)[C@H](CC(C)C)NC(=O)CNC(=O)[C@H](CCC(=O)O)NC2=O [compound 425]
[3]
  pIC50: 8.27
[3]; 1 nM as printed, mouse DRG neurons
  inhibition of TTX-sensitive sodium current, in words: almost complete inhibition
[3]; 100 nM
  block of TTX-sensitive Nav current, in words: blocked most TTX-sensitive Nav current
[3]; mouse DRG neurons
  fold more potent than JzTx-V in inhibition of TTX-sensitive current: about 3 fold
[3]; partially inactivated, mTTX-S / hNav1.7
  1.x/1.7: 6335
hNav1.7 [1]; Table 15, read-out: PX hNav1.7 Tonic IC50
  pIC50: 8.92
hNav1.7 [2]; held at −77 mV, partially inactivated state
  block of hNav1.7 current, in words: fully blocked Nav1.7 current; also recorded: complete inhibition
hNav1.7 [2]; held at −140 mV, fully non-inactivated state
  block of hNav1.7 current, in words: fully blocked Nav1.7 current; also recorded: complete inhibition
hNav1.7 [2]; WCPC format
  improvement in hNav1.7 potency over wild type JzTx-V: ~200 fold and 190 fold
hNav1.7 [2]; fully non-inactivated
  1.x/1.7: 1
hNav1.7 [2]; partially inactivated
  1.x/1.7: 1
hNav1.6; ratio of PX tonic IC50 values
  Nav1.6/Nav1.7: 57
hNav1.6; read-out: PX hNav1.6 Tonic IC50
  pIC50: 7.17

## C#CC[C@H](N)C(=O)N[C@@H](Cc1ccc(O)cc1)C(=O)N[C@H]1CSSC[C@@H]2NC(=O)[C@@H]3CSSC[C@@H](C(=O)N[C@@H](CCCNC(=N)N)C(=O)N[C@@H](CCCCN)C(=O)N[C@@H](CCC(=O)O)C(=O)N[C@H](C(N)=O)[C@@H](C)CC)NC(=O)[C@H](Cc4c[nH]c5ccccc45)NC(=O)[C@H](CC(C)C)NC(=O)[C@H](CCCCN)NC(=O)[C@H](CSSC[C@H](NC(=O)[C@H]([C@@H](C)O)NC(=O)[C@H](Cc4c[nH]c5ccccc45)NC(=O)[C@H](CCCC)NC(=O)[C@H](Cc4c[nH]c5ccccc45)NC(=O)[C@H](CCCCN)NC(=O)[C@H](CCC(N)=O)NC1=O)C(=O)N[C@@H](CC(=O)O)C(=O)N[C@@H](CO)C(=O)N[C@@H](CCC(=O)O)C(=O)N[C@@H](CCCNC(=N)N)C(=O)N[C@@H](C)C(=O)N3)NC(=O)[C@H](CCCNC(=N)N)NC(=O)[C@H](CC(C)C)NC(=O)CNC(=O)[C@H](CCCCN)NC2=O [Pra-[Nle6; Glu12, 28; Lys17]JzTx-V(1-29)]
Mouse Nav1.4
  pIC50: 7.20
  mNav1.4/mNav1.7: 14
rNav1.7
  pIC50: 8.70
  rNav1.7/hNav1.7: 0.23
mNav1.7
  pIC50: 8.36
  mNav1.7/hNav1.7: 0.50

## C#CC[C@H](N)C(=O)N[C@@H](Cc1ccc(O)cc1)C(=O)N[C@H]1CSSC[C@@H]2NC(=O)[C@@H]3CSSC[C@@H](C(=O)N[C@@H](CCCNC(=N)N)C(=O)N[C@@H](CCCCN)C(=O)N[C@@H](CCC(=O)O)C(=O)N[C@H](C(N)=O)[C@@H](C)CC)NC(=O)[C@H](Cc4c[nH]c5ccccc45)NC(=O)[C@H](CC(C)C)NC(=O)[C@H](CCCCN)NC(=O)[C@H](CSSC[C@H](NC(=O)[C@H]([C@@H](C)O)NC(=O)[C@H](Cc4c[nH]c5ccccc45)NC(=O)[C@H](CCCC)NC(=O)[C@H](Cc4c[nH]c5ccccc45)NC(=O)[C@H](CCCCN)NC(=O)[C@H](CCC(N)=O)NC1=O)C(=O)N[C@@H](CC(=O)O)C(=O)N[C@@H](CO)C(=O)N[C@@H](CCCCN)C(=O)N[C@@H](CCCNC(=N)N)C(=O)N[C@@H](C)C(=O)N3)NC(=O)[C@H](CCCNC(=N)N)NC(=O)[C@H](CC(C)C)NC(=O)CNC(=O)[C@H](CCC(=O)O)NC2=O [Pra-[Nle6, Glu28]JzTx-V(1-29)]
Mouse Nav1.4
  pIC50: 6.92
  mNav1.4/mNav1.7: 12
rNav1.7
  pIC50: 9.19
  rNav1.7/hNav1.7: 1.17
mNav1.7
  pIC50: 8.01
  mNav1.7/hNav1.7: 17.99
